Assay results published in ChEMBL document CHEMBL3585271 (Bioorg Med Chem, 2015).
pIC50: −log10 of the molar value.

Tested on: not listed separately
Experiment: Metal chelating activity of the compound assessed as Zn2+ complex formation at 40 uM after 30 mins by UV-vis spectrometry
Type: physicochemical
Details: 0.5 h; call rule not given here

With `C#CCN(C)[C@H](C)Cc1ccc(NCc2ccccc2O)cc1` the Activity was “Active”.

Target: T1, Amine oxidase [flavin-containing] A (Homo sapiens, UniProt P21397)
T1 sequence (P21397 whole entry): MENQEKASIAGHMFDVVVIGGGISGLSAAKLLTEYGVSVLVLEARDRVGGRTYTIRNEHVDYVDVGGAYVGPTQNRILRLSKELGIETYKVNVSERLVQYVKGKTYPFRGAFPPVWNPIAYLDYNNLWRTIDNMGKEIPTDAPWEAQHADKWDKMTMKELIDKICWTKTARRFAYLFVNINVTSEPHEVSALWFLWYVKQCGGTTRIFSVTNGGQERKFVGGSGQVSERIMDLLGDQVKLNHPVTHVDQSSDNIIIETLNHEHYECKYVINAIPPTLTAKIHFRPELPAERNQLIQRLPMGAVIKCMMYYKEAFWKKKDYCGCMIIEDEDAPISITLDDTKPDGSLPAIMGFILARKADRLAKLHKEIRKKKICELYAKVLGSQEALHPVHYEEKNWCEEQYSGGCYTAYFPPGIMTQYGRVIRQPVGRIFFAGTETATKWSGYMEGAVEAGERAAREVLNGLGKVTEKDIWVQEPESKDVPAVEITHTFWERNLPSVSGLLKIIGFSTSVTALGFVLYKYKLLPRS
Experiment: not given
Details: not given

`C#CCN(C)[C@H](C)Cc1ccc(NCc2cc(Cl)ccc2O)cc1` and `C#CCN(C)[C@H](C)Cc1ccc(NCc2cc(O)ccc2O)cc1` are within 0.2 log units of each other in pIC50: 6.15 for the first, 5.99 for the second.

Compared with `C#CCN(C)[C@H](C)Cc1ccc(NCc2cc(OC)ccc2O)cc1`, `C#CCN(C)[C@H](C)Cc1ccc(NCc2ccccc2O)cc1` is 0.72 log units lower in pIC50: 5.99 for the first, 5.27 for the second.

Compared with `C#CCN(C)[C@H](C)Cc1ccc(NCc2ncccc2C)cc1`, `C#CCN(C)[C@H](C)Cc1ccc(NCc2ncccc2OC)cc1` is 0.21 log units higher in pIC50: 5.26 for the first, 5.47 for the second. The second is the more potent here.

Tested on: not listed separately
Experiment: Metal chelating activity of the compound assessed as Cu2+ complex formation at 40 uM after 30 mins by UV-vis spectrometry
Type: physicochemical
Details: 0.5 h

For `C#CCN(C)[C@H](C)Cc1ccc(NCc2ccccc2O)cc1`, the Activity was “Active”.

Species on record: Homo sapiens
Experiment: Selectivity index, ratio of IC50 for human recombinant MAO-A to IC50 for human recombinant MAO-B
Details: not given

Compared with `C#CCN(C)[C@H](C)Cc1ccc(NCc2cc(Cl)ccc2O)cc1`, `C#CCN(C)[C@H](C)Cc1ccc(NCc2cc(O)ccc2O)cc1` is higher in Ratio IC50: 2.2 for the first, 2.4 for the second.

Going from `C#CCN(C)[C@H](C)Cc1ccc(NCc2cc(OC)ccc2O)cc1` to `C#CCN(C)[C@H](C)Cc1ccc(NCc2ccccc2O)cc1`, the Ratio IC50 rises from 3.3 to 25.6.

Compound `C#CCN(C)[C@H](C)Cc1ccc(NCc2ncccc2C)cc1` has a Ratio IC50 of 10.6.

Tested on: not listed separately
Experiment: Metal chelating activity of the compound assessed as Fe2+ complex formation at 40 uM after 30 mins by UV-vis spectrometry
Type: physicochemical
Details: 0.5 h

For `C#CCN(C)[C@H](C)Cc1ccc(NCc2ccccc2O)cc1`, the Activity was “Active”.

Tested on: not listed separately
Experiment: physchem
Details: PAMPA
Description: Permeability of the compound at 100 ug/mL after 10 hrs by PAMPA-BBB assay

Going from `C#CCN(C)[C@H](C)Cc1ccc(NCc2cc(O)ccc2O)cc1` to `C#CCN(C)[C@H](C)Cc1ccc(NCc2cc(OC)ccc2O)cc1`, the Papp at 10 h, 100 ug/mL rises from 3.1 ×10⁻⁶ cm/s to 11.7 ×10⁻⁶ cm/s (3.8-fold).

`C#CCN(C)[C@H](C)Cc1ccc(NCc2cc(N(C)C)ccc2O)cc1` and `C#CCN(C)[C@H](C)Cc1ccc(NCc2ccccc2O)cc1` are within 1.5-fold of each other in Papp at 10 h, 100 ug/mL: 12.5 ×10⁻⁶ cm/s for the first, 11.5 ×10⁻⁶ cm/s for the second.

With `C#CCN(C)[C@H](C)Cc1ccc(NCc2ncccc2C)cc1` the Papp at 10 h, 100 ug/mL was 12.1 ×10⁻⁶ cm/s.

Target: T2, Amine oxidase [flavin-containing] B (Homo sapiens, UniProt P27338)
T2 sequence (P27338 whole entry): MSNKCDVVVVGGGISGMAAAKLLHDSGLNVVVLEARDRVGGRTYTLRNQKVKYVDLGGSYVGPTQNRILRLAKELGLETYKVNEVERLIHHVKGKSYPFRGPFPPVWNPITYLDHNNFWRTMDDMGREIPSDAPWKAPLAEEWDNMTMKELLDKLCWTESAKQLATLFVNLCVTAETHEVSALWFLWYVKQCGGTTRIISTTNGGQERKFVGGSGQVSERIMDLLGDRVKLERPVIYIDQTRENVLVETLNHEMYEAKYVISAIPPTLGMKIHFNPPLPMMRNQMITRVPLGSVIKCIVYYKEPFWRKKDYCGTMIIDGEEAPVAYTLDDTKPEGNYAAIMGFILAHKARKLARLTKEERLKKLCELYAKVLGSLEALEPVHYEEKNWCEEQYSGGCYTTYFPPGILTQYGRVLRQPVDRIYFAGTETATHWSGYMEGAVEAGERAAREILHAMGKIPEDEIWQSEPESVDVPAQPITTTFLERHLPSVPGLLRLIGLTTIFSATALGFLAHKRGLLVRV
Experiment: not given
Details: not given

Going from `C#CCN(C)[C@H](C)Cc1ccc(NCc2ccc(OC)cc2O)cc1` to `C#CCN(C)[C@H](C)Cc1ccc(NCc2cc(OC)ccc2O)cc1`, the pIC50 rises from less than 6.00 to 6.51.

Compared with `C#CCN(C)[C@H](C)Cc1ccc(NCc2cc(Cl)ccc2O)cc1`, `C#CCN(C)[C@H](C)Cc1ccc(NCc2cc(F)ccc2O)cc1` is lower in pIC50: 6.51 for the first, less than 6.00 for the second.

Going from `C#CCN(C)[C@H](C)Cc1ccc(NCc2cc(O)ccc2O)cc1` to `C#CCN(C)[C@H](C)Cc1ccc(NCc2ccccc2O)cc1`, the pIC50 rises from 6.37 to 6.68 (0.31 log units).

First: C#CCN(C)[C@H](C)Cc1ccc(NCc2cc(N(C)C)ccc2O)cc1
Second: C#CCN(C)[C@H](C)Cc1ccc(NCc2cc([N+](=O)[O-])ccc2O)cc1
The pIC50 of the first is lower: less than 6.00 for the first, 6.02 for the second. The second is the more potent here.

First: C#CCN(C)[C@H](C)Cc1ccc(NCc2ncccc2C)cc1
Second: C#CCN(C)[C@H](C)Cc1ccc(NCc2ncccc2OC)cc1
The pIC50 of the first is 0.23 log units lower: 6.28 for the first, 6.51 for the second.

`C#CCN(C)[C@H](C)Cc1ccc(NCc2cccc(OC)c2O)cc1` gave a pIC50 of less than 6.00.

Target: Amyloid-beta precursor protein (Homo sapiens) (UniProt P05067)
Experiment: Inhibition of Cu2+-induced amyloid beta (1 to 42) aggregation (unknown origin) at 50 uM after 24 hrs by thioflavin T fluorescence assay (reference value: 100%)
Set-up: scale not given: the % may be the effect or the level left
Details: not given

Sequence of Amyloid-beta precursor protein (Homo sapiens) (P05067 whole entry): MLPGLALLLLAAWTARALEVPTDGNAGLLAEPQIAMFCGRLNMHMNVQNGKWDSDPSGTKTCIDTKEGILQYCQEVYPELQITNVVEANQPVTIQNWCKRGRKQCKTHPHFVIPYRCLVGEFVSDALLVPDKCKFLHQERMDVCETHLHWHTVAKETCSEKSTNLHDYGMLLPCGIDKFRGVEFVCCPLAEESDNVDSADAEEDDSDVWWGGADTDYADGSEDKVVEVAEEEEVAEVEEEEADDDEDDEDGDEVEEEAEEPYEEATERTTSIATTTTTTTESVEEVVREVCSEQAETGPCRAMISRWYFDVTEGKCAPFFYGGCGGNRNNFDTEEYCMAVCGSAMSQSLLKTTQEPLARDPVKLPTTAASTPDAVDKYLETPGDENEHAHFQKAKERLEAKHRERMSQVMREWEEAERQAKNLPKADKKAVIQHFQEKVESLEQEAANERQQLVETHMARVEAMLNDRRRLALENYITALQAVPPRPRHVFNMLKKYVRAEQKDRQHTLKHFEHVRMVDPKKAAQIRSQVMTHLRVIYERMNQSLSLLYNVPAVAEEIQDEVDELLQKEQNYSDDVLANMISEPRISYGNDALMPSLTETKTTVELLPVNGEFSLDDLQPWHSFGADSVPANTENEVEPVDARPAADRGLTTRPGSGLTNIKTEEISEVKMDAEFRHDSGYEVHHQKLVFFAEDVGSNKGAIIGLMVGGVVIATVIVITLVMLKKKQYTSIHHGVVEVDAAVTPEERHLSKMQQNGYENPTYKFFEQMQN

First: C#CCN(C)[C@H](C)Cc1ccc(NCc2cc(O)ccc2O)cc1
Second: C#CCN(C)[C@H](C)Cc1ccc(NCc2ccccc2O)cc1
The Activity of the first is higher: 63.1% for the first, 40.4% for the second.

Going from `CCN(CC)CCCC(C)Nc1ccnc2cc(Cl)ccc12` (stereo not given) to `C#CCN(C)[C@H](C)Cc1ccc(NCc2ncccc2OC)cc1`, the Activity rises from 68.2% to 69.1%.

Tested on: not listed separately
Experiment: Antioxidant activity assessed as trolox equivalent of AAPH radical scavenging activity compound preincubated for 10 mins followed by AAPH challenge measured every min for 120 mins by ORAC-FL assay
Type: physicochemical
Details: 2 h

First: C#CCN(C)[C@H](C)Cc1ccc(NCc2ccc(OC)cc2O)cc1
Second: C#CCN(C)[C@H](C)Cc1ccc(NCc2cc(OC)ccc2O)cc1
The Activity of the first is higher: 4.35 µmol for the first, 3.81 µmol for the second.

Compared with `C#CCN(C)[C@H](C)Cc1ccc(NCc2cc(Cl)ccc2O)cc1`, `C#CCN(C)[C@H](C)Cc1ccc(NCc2cc(F)ccc2O)cc1` is lower in Activity: 4.44 µmol for the first, 2.26 µmol for the second.

Compared with `C#CCN(C)[C@H](C)Cc1ccc(NCc2cc(O)ccc2O)cc1`, `C#CCN(C)[C@H](C)Cc1ccc(NCc2ccccc2O)cc1` is lower in Activity: 5.67 µmol for the first, 4.2 µmol for the second.

Going from `C#CCN(C)[C@H](C)Cc1ccc(NCc2cc(N(C)C)ccc2O)cc1` to `C#CCN(C)[C@H](C)Cc1ccc(NCc2cc([N+](=O)[O-])ccc2O)cc1`, the Activity falls from 4.52 µmol to 2.1 µmol.

Going from `C#CCN(C)[C@H](C)Cc1ccc(NCc2ncccc2C)cc1` to `C#CCN(C)[C@H](C)Cc1ccc(NCc2ncccc2OC)cc1`, the Activity falls from 1.78 µmol to 1.49 µmol.

Work on `C#CCN(C)[C@H](C)Cc1ccc(NCc2cccc(OC)c2O)cc1` yielded an Activity of 2.44 µmol.
